Test system: 997537-175-T-J1-PDC complex spheroid viability
Experiment: Anticancer human tumor 997537-175-T-J1-PDC patient-derived colon adenocarcinoma cell line growth inhibition [GQUAD]
Conditions: for IC50: curve of first compound; for viability, T/C: stronger effect = lower value
Outline: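 Multi-cell-type spheroids of tumor cells with HUVEC and mesenchymal stem cells, treated with drug combinations. Concentrations descend in half-log steps from near clinical Cmax, or from 10 microM where Cmax is unknown; viability read-out.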

[1] = second compound 0.0316 µM, first compound 0.0316 µM
[2] = second compound 0.0316 µM, first compound 0.1 µM
[3] = second compound 0.0316 µM, first compound 0.316 µM
[4] = second compound 0.0316 µM, first compound 1 µM
[5] = second compound 0.0316 µM, first compound 3.16 µM
[6] = second compound 0.0316 µM, first compound 10 µM
[7] = second compound 0.1 µM, first compound 0.0316 µM
[8] = second compound 0.1 µM, first compound 0.1 µM
[9] = second compound 0.1 µM, first compound 0.316 µM
[10] = second compound 0.1 µM, first compound 1 µM
[11] = second compound 0.1 µM, first compound 3.16 µM
[12] = second compound 0.1 µM, first compound 10 µM
[13] = second compound 0.316 µM, first compound 0.0316 µM
[14] = second compound 0.316 µM, first compound 0.1 µM
[15] = second compound 0.316 µM, first compound 0.316 µM
[16] = second compound 0.316 µM, first compound 1 µM
[17] = second compound 0.316 µM, first compound 3.16 µM
[18] = second compound 0.316 µM, first compound 10 µM
[19] = second compound 1 µM, first compound 0.0316 µM
[20] = second compound 1 µM, first compound 0.1 µM
[21] = second compound 1 µM, first compound 0.316 µM
[22] = second compound 1 µM, first compound 1 µM
[23] = second compound 1 µM, first compound 3.16 µM
[24] = second compound 1 µM, first compound 10 µM
[25] = second compound 3.16 µM, first compound 0.0316 µM
[26] = second compound 3.16 µM, first compound 0.1 µM
[27] = second compound 3.16 µM, first compound 0.316 µM
[28] = second compound 3.16 µM, first compound 1 µM
[29] = second compound 3.16 µM, first compound 3.16 µM
[30] = second compound 3.16 µM, first compound 10 µM
[31] = second compound 10 µM, first compound 0.0316 µM
[32] = second compound 10 µM, first compound 0.1 µM
[33] = second compound 10 µM, first compound 0.316 µM
[34] = second compound 10 µM, first compound 1 µM
[35] = second compound 10 µM, first compound 3.16 µM
[36] = second compound 10 µM, first compound 10 µM
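Further: spheroids exposed to the agents for 7 days.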
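Wherever viability, T/C is given: 100% = DMSO vehicle control viability.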

C=CCn1c(=O)c2cnc(Nc3ccc(N4CCN(C)CC4)cc3)nc2n1-c1cccc(C(C)(C)O)n1 + Cc1[nH]c2ccc(F)cc2c1-c1nc2c3cccnc3c3ncccc3c2[nH]1
IC50 (second compound 0.0316 µM): 6.61 µM | IC50 (second compound 0.1 µM): 6.38 µM | IC50 (second compound 0.316 µM): 6.16 µM | IC50 (second compound 1 µM): 5.5 µM | IC50 (second compound 3.16 µM): 2.24 µM | IC50 (second compound 10 µM): 2.09 µM | viability, T/C [1]: 102% | viability, T/C [2]: 68.9% | viability, T/C [3]: 82.3% | viability, T/C [4]: 83.6% | viability, T/C [5]: 90.9% | viability, T/C [6]: 30% | viability, T/C [7]: 105% | viability, T/C [8]: 97.1% | viability, T/C [9]: 89.8% | viability, T/C [10]: 89.2% | viability, T/C [11]: 93.6% | viability, T/C [12]: 22.2% | viability, T/C [13]: 86.8% | viability, T/C [14]: 98.8% | viability, T/C [15]: 79.3% | viability, T/C [16]: 86.4% | viability, T/C [17]: 84.4% | viability, T/C [18]: 25% | viability, T/C [19]: 86.6% | viability, T/C [20]: 102% | viability, T/C [21]: 86.4% | viability, T/C [22]: 78.3% | viability, T/C [23]: 71.2% | viability, T/C [24]: 30.1% | viability, T/C [25]: 92% | viability, T/C [26]: 87.3% | viability, T/C [27]: 72.4% | viability, T/C [28]: 56.5% | viability, T/C [29]: 55% | viability, T/C [30]: 6.52% | viability, T/C [31]: 91.9% | viability, T/C [32]: 65.1% | viability, T/C [33]: 74.9% | viability, T/C [34]: 66.5% | viability, T/C [35]: 42.1% | viability, T/C [36]: 11.5%

C=CCn1c(=O)c2cnc(Nc3ccc(N4CCN(C)CC4)cc3)nc2n1-c1cccc(C(C)(C)O)n1 + CN(C)c1ccc(Nc2c3ccc(NC(=O)CCN4CCCC4)cc3nc3cc(NC(=O)CCN4CCCC4)ccc23)cc1
IC50 (second compound 0.0316 µM): 2.1 µM | IC50 (second compound 0.1 µM): 2.16 µM | IC50 (second compound 0.316 µM): 6.68 µM | IC50 (second compound 1 µM): 2.86 µM | IC50 (second compound 3.16 µM): 2.42 µM | IC50 (second compound 10 µM): 5.06 µM | viability, T/C [1]: 104% | viability, T/C [2]: 93% | viability, T/C [3]: 91.8% | viability, T/C [4]: 74.4% | viability, T/C [5]: 35.5% | viability, T/C [6]: 31.7% | viability, T/C [7]: 95.8% | viability, T/C [8]: 85.2% | viability, T/C [9]: 89.1% | viability, T/C [10]: 67.5% | viability, T/C [11]: 41.2% | viability, T/C [12]: 25.6% | viability, T/C [13]: 101% | viability, T/C [14]: 73.8% | viability, T/C [15]: 86.5% | viability, T/C [16]: 71.9% | viability, T/C [17]: 84.2% | viability, T/C [18]: 31.8% | viability, T/C [19]: 83.1% | viability, T/C [20]: 72% | viability, T/C [21]: 82.1% | viability, T/C [22]: 75.8% | viability, T/C [23]: 47.5% | viability, T/C [24]: 26.4% | viability, T/C [25]: 74.3% | viability, T/C [26]: 85.9% | viability, T/C [27]: 88% | viability, T/C [28]: 68.5% | viability, T/C [29]: 45.1% | viability, T/C [30]: 33.3% | viability, T/C [31]: 66.1% | viability, T/C [32]: 92.8% | viability, T/C [33]: 111% | viability, T/C [34]: 74.2% | viability, T/C [35]: 58.5% | viability, T/C [36]: 39.9%
